The assay has as its system 4T1 TAMs. Nature of the assay: Activity against 4T1 TAMs in-vivo (FACS of harvested tumors). Also noted: species or system nude rats. As to conditions: single i.v. dose (Example 1 100 nmol/kg; EC0923 alone 50 μmol/kg), tumors harvested four days later. An excerpt: EXAMPLE 4. Example 1 activity against 4T1 TAMs in-vivo. As a proof-of-concept study, female Foxn1^nu nude rats (Harlan, Inc., Indianapolis, IN) on a folate-deficient diet are subcutaneously implanted with 1×10^6 4T1 tumor cells in the left and right mammary regions (2 tumors per animal). When the tumors reach about 900-1000 mm^3, the animals are intravenously dosed with (i) PBS (n=1), (ii) 100 nmol/kg of the folic acid-releasable linker-drug conjugate, such as Example1 (n=1), (iii) 100 nmol/kg of Example1 plus 50 μmol/kg of EC0923 (n=1), or (iv) 50 μmol/kg of EC0923 (n=1). Four days later, the tumors are harvested, enzymatically digested, and subjected to FACS analysis. The tumor cell suspensions are stained for macrophage markers (CD163 and/or CD11b), cell viability (propidium iodide), and late and early apoptosis (Annexin V).
EXAMPLE 13. Preparation of 4T1 xenograft tumors from nude rats and MDA-MB-231 tumors isolated from nude mice and A549 tumors isolated from nude mice. Each tumor is minced and placed into 20 mL of RPMI1640 (serum free) containing 0.5 mg/mL Collagenase IV, 0.05 mg/mL hyaluronidase, and 0.1 mg/mL DNaseI and placed in a shaker at 200 rpm for 1 hr at 37° C. […]

The values below come from US20240415921A1, “METHODS OF TREATING CANCER BY TARGETING TUMOR-ASSOCIATED MACROPHAGES” (ENDOCYTE, INC., priority 2014, published 2024).

As for `Nc1nc2ncc(CNc3ccc(C(=O)N[C@@H](CCC(=O)N[C@H](CC(=O)O)C(=O)N[C@H](CC(=O)O)C(=O)O)C(=O)O)cc3)nc2c(=O)[nH]1` [EC0923, pteroyl-[…]Glu-D-Asp-D-Asp], the “viable CD163(+) CD11b(+) TAM population in 4T1 tumors” value is listed as “does not have any effect”.
